This note sets out measurements from article PMC12057359, “Inhibitory effect of copper chelators on the budding in Candida albicans” (Antimicrobial Agents and Chemotherapy, 2025).

A word on the IC50: it is the concentration at which inhibition is half-maximal.

Where a name gives a salt, the structure may show the parent alone. Read-outs that look alike come from different tables or passages of the source.

One series has as its system C. glabrata JCM3761. The series can be described thus: iHOPE antimicrobial microdilution assay (turbidity OD600). Particulars: Nakaseomyces glabratus, JCM3761; MOPS-RPMI medium, 24 h; SD in parentheses, n = 3; read-out: IC50 against C. glabrata JCM3761. Type of series: cell-based, Candida glabrata.
The subject of a further series is C. auris Ci6684. Described as above. It is filed as cell-based, Candida auris. Particulars: Candidozyma auris, CI6684; MOPS-RPMI medium, 24 h; SD in parentheses, n = 3; read-out: IC50 against C. auris Ci6684.
Series [1] can be described thus: iHOPE in vitro cytotoxicity assessment (Cell Count Reagent SF). Conditions: human. It is filed as cell-based, human.
A further series deals with C. tropicalis JCM1541. The series can be described thus: iHOPE antimicrobial microdilution assay (turbidity OD600). Type of series: cell-based. Conditions: Candida tropicalis, JCM1541; MOPS-RPMI medium, 24 h; SD in parentheses, n = 3; read-out: IC50 against C. tropicalis JCM1541.
Another series has as its system C. auris VPCI673. The description is as above. It is filed as cell-based, Candida auris. Particulars: Candidozyma auris, VPCI673; MOPS-RPMI medium, 24 h; SD in parentheses, n = 3; read-out: IC50 against C. auris VPCI673.
Series [2] has as its system C. albicans JCM1542. The series is described as above. Conditions: for IC50: read-out: IC50 against C. albicans JCM1542. Type of series: cell-based, Candida albicans.
In a further series the test system is A. fumigatus Af293. The series can be described thus: iHOPE antimicrobial microdilution assay. It is filed as cell-based, Aspergillus fumigatus. Conditions: Aspergillus fumigatus, AF293; SD in parentheses, n = 3; read-out: IC50 against A. fumigatus Af293. On the technique in general: Dilution methods test growth across graded concentrations, often in twofold steps.

The test system of a further series is S. aureus 209P. Description: iHOPE antimicrobial microdilution assay. Type of series: cell-based, Staphylococcus aureus. Particulars: Staphylococcus aureus, 209P; SD in parentheses, n = 3; read-out: IC50 against S. aureus 209P.
For series [3], the system named is C. albicans JCM1542. It is filed as cell-based, Candida albicans.
The test system of a further series is E. coli HO-141. The series can be described thus: iHOPE antimicrobial microdilution assay. Type of series: cell-based, Escherichia coli. Conditions: Escherichia coli, HO141; SD in parentheses, n = 3; read-out: IC50 against E. coli HO-141.
A further series deals with P. oryzae Kita-1. Description: microbe, parasite or virus in culture. Type of series: cell-based, Pyricularia oryzae. Particulars: Pyricularia oryzae, KITA1, read-out: IC50 against P. oryzae Kita-1.
Where [4] appears, read: SD in parentheses, n = 3, read-out: IC50 against HL-60 RCB0041 (cytotoxicity).
The mark [5] stands for this setting: Candida albicans, JCM1542, MOPS-RPMI medium, 28°C, 24 h, OD600, standard deviation in parentheses, n = 3.
Where [6] appears, read: C. albicans JCM1542, MOPS-RPMI medium, 24 h.

`[C-]#[N+][C@H](C)CC(=O)NCCc1ccc(NC(=O)C[C@@H](C)[N+]#[C-])cc1` [12a]: the IC50 was 0.01 µM in the series on C. glabrata JCM3761; 0.058 µM in the series with C. auris Ci6684; above 30 µM in series [1] (setting [4]); 0.013 µM in the series on C. tropicalis JCM1541; 0.18 µM in the series with C. auris VPCI673; 0.012 µM in the series on C. albicans JCM1542 [2] (setting [5]).
For the compound `[C-]#[N+][C@@H](C)CC(=O)Nc1ccc(NC(=O)C[C@H](C)[N+]#[C-])cc1` [13b], the figures for the concentration for half-maximal inhibition (IC50) (in series [1] (setting [4]); in the series on C. albicans JCM1542 [2] (setting [5])) were above 30 µM and 0.034 µM, respectively.
With `[C-]#[N+][C@H](C)CC(=O)N[C@H]1CC[C@@H](NC(=O)C[C@@H](C)[N+]#[C-])CC1` [15a], the IC50 with C. glabrata JCM3761 was 0.0082 µM; in the series on C. auris Ci6684, 0.049 µM; in series [1] (setting [4]), above 30 µM; in the series on C. tropicalis JCM1541 it was 0.032 µM; with C. auris VPCI673 it was 0.064 µM; with C. albicans JCM1542 [2] (setting [5]), 0.015 µM.
For `OC(Cn1cncn1)(Cn1cncn1)c1ccc(F)cc1F` [Fluconazole, fluconazole], the IC50 was 0.69 µM in the series on C. glabrata JCM3761; above 30 µM with A. fumigatus Af293; above 30 µM with C. auris Ci6684; above 30 µM in series [1] (HL-60 RCB0041 cells (promyelocytic leukemia cell line), SD in parentheses, n = 3, read-out: IC50 against HL-60 RCB0041 (cytotoxicity)); 0.4 µM in the series on C. tropicalis JCM1541; above 30 µM in the series on S. aureus 209P. The IC50 was above 30 µM with E. coli HO-141, above 30 µM with P. oryzae Kita-1, above 30 µM in the series with C. auris VPCI673 and 0.39 µM in the series on C. albicans JCM1542 [2] (setting [5]). The “morphological change induced in C. albicans” value (from here on “morphological change induced”) in the series with C. albicans JCM1542 [3] is “yeast-rich morphology”.
For `OO` [H2O2], the IC50 in the series on C. albicans JCM1542 [2] (MOPS-RPMI medium, 28°C, 24 h, OD600, standard deviation in parentheses, n = 3) came to 550 µM.
As to `CC(C)=CCC/C(C)=C/CC/C(C)=C/CO` [farnesol], the “growth form of C. albicans under hyphal growth conditions” value in the series with C. albicans JCM1542 [3] (3 µM, MOPS-RPMI) is “the cells grew as yeast form”.
Consider `[C-]#[N+][C@H](C)CC(=O)N[C@H]1CC[C@H](NC(=O)C[C@@H](C)[N+]#[C-])CC1` [16a], for which the IC50 is above 30 µM in series [1] (setting [4]) and 0.61 µM in the series with C. albicans JCM1542 [2] (setting [5]).
For the compound `[C-]#[N+][C@H](C)CC(=O)NCc1ccc(N)cc1` [8a], the IC50 in series [1] (setting [4]) was above 30 µM; with C. albicans JCM1542 [2] (setting [5]), 0.77 µM. The “antifungal activity / inhibition of budding against C. albicans (in words)” value with C. albicans JCM1542 [2] (C. albicans JCM1542) was “weak antifungal activity and inhibition of budding”.
Take `[C-]#[N+][C@@H](C)CC(=O)NCCc1ccc(NC(=O)C[C@H](C)[N+]#[C-])cc1` [12b]: the IC50 is 0.012 µM with C. glabrata JCM3761; 0.055 µM with C. auris Ci6684; above 30 µM in series [1] (setting [4]); 0.012 µM with C. tropicalis JCM1541; 0.14 µM in the series on C. auris VPCI673; 0.012 µM with C. albicans JCM1542 [2] (setting [5]).
With `NCCNCCNCCN` [Trientine, trientine hydrochloride], the IC50 is 0.12 µM in the series with C. glabrata JCM3761; 8.1 µM in the series with A. fumigatus Af293; above 100 µM in the series on C. auris Ci6684; above 100 µM in [1]; 18 µM with C. tropicalis JCM1541; above 100 µM in the series with S. aureus 209P. Moreover, the half-maximal inhibitory concentration (IC50) in the series on E. coli HO-141 is above 100 µM; with P. oryzae Kita-1 it was above 100 µM; in the series with C. auris VPCI673, above 100 µM; with C. albicans JCM1542 [2] (setting [5]), 0.57 µM. Further, the “morphological change induced” value in the series on C. albicans JCM1542 [3] was “morphological changes similar to those observed with SF2768”.
For the compound `CC(C)(S)[C@@H](N)C(=O)O` [D-Penicillamine, D-penicillamine], the IC50 in the series on C. glabrata JCM3761 was 270 µM; in the series on A. fumigatus Af293, above 1000 µM; in the series with C. auris Ci6684 it was above 1000 µM; in series [1], above 1000 µM; with C. tropicalis JCM1541, above 1000 µM; in the series on S. aureus 209P, above 1000 µM. Besides, the IC50 with E. coli HO-141, in the series with P. oryzae Kita-1 and in the series on C. auris VPCI673 was above 1000 µM in each case. In addition, the “morphological change induced” value in the series on C. albicans JCM1542 [3] (setting [6]) is listed as “morphological changes similar to those observed with SF2768”.
Regarding `C/C=C(\C)[C@H](O)[C@H](C)/C=C(C)/C=C/C/C(C)=C/Cc1nc(OC)c(OC)c(O)c1C` [Piericidin A, piericidin A], in the series with C. albicans JCM1542 [2] (Candida albicans, JCM1542, 24 h), the IC50 was 12 µM.
Take `COc1cc(-c2ccccn2)nc(/C=N/O)c1SC` [collismycin]: the “morphological change induced” value with C. albicans JCM1542 [3] (setting [6]) was “elongated, but not as long as SF2768, and tortuous hyphae”.
